Source: ChEMBL document CHEMBL1201862, “PubChem BioAssay data set” (2004)
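Cultured in 96-well plates, cells were exposed to test compound for 48 hours across five concentrations. GI50 = concentration required for 50% inhibition of growth.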 The source made the active and inactive calls. Rule as the data show it: active = GI50 up to about 1.1 µM and inactive = higher.

Assays:
Test in all cases: inhibition of tumour cell growth, NCI panel, 48 h
OVCAR-8 = tested on: OVCAR-8
KM12 = tested on: KM12
MOLT-4 = tested on: MOLT-4
HCT-15 = tested on: HCT-15
UACC-257 = tested on: UACC-257
CAKI-1 = tested on: CAKI-1
HCT-116 = tested on: HCT-116
RPMI-8226 = tested on: RPMI-8226
MDA-MB-231 = tested on: MDA-MB-231
OVCAR-4 = tested on: OVCAR-4
IGROV-1 = tested on: IGROV-1
NCI-H460 = tested on: NCI-H460
Malme-3M = tested on: Malme-3M
HCC 2998 = tested on: HCC 2998
A549 = tested on: A549
RXF 393 = tested on: RXF 393
SW-620 = tested on: SW-620
UO-31 = tested on: UO-31
HL-60 = tested on: HL-60

Measured: GI50

CN1COCc2cc3cc4c(cc3nc21)OCCO4
inactive: OVCAR-8 > 100 µM | KM12 41.5 µM | MOLT-4 11.5 µM | UACC-257 > 100 µM | CAKI-1 94.6 µM | HCT-116 93.3 µM | RPMI-8226 4.72 µM | MDA-MB-231 > 100 µM | OVCAR-4 > 100 µM | IGROV-1 55 µM | NCI-H460 44.8 µM | Malme-3M 30 µM | HCC 2998 > 100 µM | A549 > 100 µM | RXF 393 > 100 µM | SW-620 > 100 µM
> 100 µM: HCT-15

CN(C)CCCN1c2ccccc2CCc2cc([N+](=O)[O-])ccc21
inactive: OVCAR-8 15.7 µM | KM12 17.5 µM | MOLT-4 15.8 µM | UO-31 14.9 µM | UACC-257 15 µM | CAKI-1 15.5 µM | HCT-116 15.7 µM | RPMI-8226 18 µM | MDA-MB-231 14.9 µM | OVCAR-4 17.7 µM | IGROV-1 15.6 µM | NCI-H460 15 µM | Malme-3M 17.7 µM | HCC 2998 12.2 µM | A549 19.9 µM | RXF 393 12.6 µM
18.5 µM: HCT-15

Cc1nc2ccccc2c(=O)n1/N=C/c1ccc(N(C)C)cc1
> 100 µM: HCT-15
inactive: OVCAR-8 53.5 µM | KM12 > 100 µM | MOLT-4 > 100 µM | UACC-257 > 100 µM | CAKI-1 > 100 µM | HCT-116 > 100 µM | RPMI-8226 4.24 µM | MDA-MB-231 32.9 µM | OVCAR-4 > 100 µM | HL-60 > 100 µM | IGROV-1 > 100 µM | NCI-H460 > 100 µM | Malme-3M > 100 µM | HCC 2998 > 100 µM | A549 > 100 µM | SW-620 > 100 µM

O=C(OCc1ccccc1)N1CCCc2c(n(S(=O)(=O)c3ccccc3)c3ccccc23)C1
inactive: OVCAR-8 > 100 µM | KM12 > 100 µM | MOLT-4 > 100 µM | UO-31 > 100 µM | UACC-257 > 100 µM | CAKI-1 > 100 µM | HCT-116 > 100 µM | RPMI-8226 > 100 µM | MDA-MB-231 > 100 µM | OVCAR-4 > 100 µM | HL-60 > 100 µM | IGROV-1 > 100 µM | NCI-H460 > 100 µM | Malme-3M 57.9 µM | A549 > 100 µM | RXF 393 53.8 µM | SW-620 > 100 µM
> 100 µM: HCT-15

C/C(=N\NC(=O)c1ccncc1)c1ccccc1Cl
inactive: OVCAR-8 > 100 µM | KM12 > 100 µM | MOLT-4 > 100 µM | UO-31 > 100 µM | UACC-257 > 100 µM | CAKI-1 > 100 µM | HCT-116 > 100 µM | RPMI-8226 79.6 µM | MDA-MB-231 > 100 µM | OVCAR-4 > 100 µM | HL-60 > 100 µM | IGROV-1 > 100 µM | NCI-H460 > 100 µM | Malme-3M > 100 µM | A549 > 100 µM | RXF 393 > 100 µM | SW-620 > 100 µM
> 100 µM: HCT-15

CN1/C(=C\N=O)C(C)(C)N(O)C1(C)C
> 100 µM: HCT-15
inactive: OVCAR-8 > 100 µM | KM12 > 100 µM | MOLT-4 > 100 µM | UO-31 > 100 µM | UACC-257 > 100 µM | CAKI-1 > 100 µM | HCT-116 > 100 µM | RPMI-8226 > 100 µM | MDA-MB-231 > 100 µM | OVCAR-4 > 100 µM | HL-60 > 100 µM | IGROV-1 > 100 µM | NCI-H460 > 100 µM | Malme-3M > 100 µM | HCC 2998 > 100 µM | A549 > 100 µM | SW-620 > 100 µM

CCOP(=O)(O)CN1CCNCCN(CP(=O)(O)OCC)CCNCC1
inactive: OVCAR-8 > 100 µM | KM12 > 100 µM | MOLT-4 > 100 µM | UO-31 35.2 µM | UACC-257 > 100 µM | CAKI-1 > 100 µM | HCT-116 > 100 µM | RPMI-8226 > 100 µM | MDA-MB-231 > 100 µM | OVCAR-4 > 100 µM | HL-60 53 µM | IGROV-1 > 100 µM | NCI-H460 > 100 µM | A549 > 100 µM | RXF 393 > 100 µM | SW-620 > 100 µM
> 100 µM: HCT-15

O=[N+]([O-])c1ccc(-c2cn(-c3ccc(Cl)cc3)cn2)cc1
inactive: OVCAR-8 36.6 µM | KM12 > 100 µM | MOLT-4 > 100 µM | UO-31 45 µM | UACC-257 > 100 µM | CAKI-1 > 100 µM | HCT-116 27.4 µM | RPMI-8226 89.5 µM | MDA-MB-231 27.2 µM | HL-60 > 100 µM | IGROV-1 41.6 µM | NCI-H460 18.5 µM | Malme-3M > 100 µM | HCC 2998 > 100 µM | A549 27.4 µM | SW-620 > 100 µM
> 100 µM: HCT-15

Cc1cc(NN)nc2[nH]nc(N)c12
> 100 µM: HCT-15
inactive: OVCAR-8 > 100 µM | KM12 > 100 µM | MOLT-4 43.3 µM | UO-31 > 100 µM | UACC-257 > 100 µM | CAKI-1 > 100 µM | HCT-116 > 100 µM | RPMI-8226 > 100 µM | MDA-MB-231 45.4 µM | OVCAR-4 > 100 µM | IGROV-1 > 100 µM | NCI-H460 > 100 µM | Malme-3M > 100 µM | A549 > 100 µM | RXF 393 > 100 µM | SW-620 > 100 µM

Cc1c(-c2ccccc2)[nH]n(C2=NCCN2)c1=O
> 100 µM: HCT-15
inactive: OVCAR-8 > 100 µM | KM12 > 100 µM | MOLT-4 > 100 µM | UO-31 85.1 µM | UACC-257 > 100 µM | CAKI-1 > 100 µM | HCT-116 > 100 µM | RPMI-8226 > 100 µM | MDA-MB-231 > 100 µM | OVCAR-4 > 100 µM | HL-60 88.5 µM | IGROV-1 67.8 µM | NCI-H460 78.7 µM | Malme-3M 41 µM | A549 > 100 µM | RXF 393 > 100 µM | SW-620 > 100 µM

O=C(Cn1c2ccc(Br)cc2c2nc3ccccc3nc21)NNC(=O)NC1CCCCC1
inactive: OVCAR-8 35.9 µM | KM12 37.4 µM | MOLT-4 25.2 µM | UO-31 2.52 µM | UACC-257 98.9 µM | CAKI-1 30.3 µM | HCT-116 57.3 µM | RPMI-8226 > 100 µM | MDA-MB-231 30.1 µM | OVCAR-4 13.8 µM | NCI-H460 47.8 µM | Malme-3M 52.2 µM | HCC 2998 > 100 µM | A549 18.3 µM | RXF 393 78.2 µM | SW-620 33 µM

Cc1ccc(C2(C)CC/C(=N/N=C3/CCC(C)(c4ccc(C)c(C)c4)c4cc(C)c(C)cc43)c3cc(C)c(C)cc32)cc1C (configuration not stated)
> 100 µM: HCT-15
inactive: OVCAR-8 > 100 µM | KM12 > 100 µM | MOLT-4 > 100 µM | UO-31 > 100 µM | CAKI-1 > 100 µM | HCT-116 > 100 µM | RPMI-8226 > 100 µM | MDA-MB-231 > 100 µM | OVCAR-4 > 100 µM | HL-60 > 100 µM | IGROV-1 > 100 µM | NCI-H460 > 100 µM | Malme-3M > 100 µM | A549 > 100 µM | RXF 393 > 100 µM | SW-620 > 100 µM
